# Laboratory results as given in publication PMC11266321 (EJNMMI Radiopharmacy and Chemistry, 2024).
# Where “and” joins values, the source holds several entries; their conditions need not be identical. Identical values can stand only once.
# How the values were obtained:
# [1] = Radiation dosimetry for human adults estimated from mouse data (OLINDA/EXM)
# Description: (§1) [^11C]MMP (8.1 MBq/17 pmol) was injected intravenously into 8-week-old male ddY mice (37.8–42.4 g). The tracer-injected mice were housed individually in filter-paper-lined animal-rearing cages until the time of euthanasia. Mice were euthanized by cervical dislocation at 1, 5, 15, 30, 60, and 90 min after injection (n = 4 each). Blood was collected by heart puncture, and the tissues were harvested. Radioactivity excreted into urine was recovered from the cage floor and by cystocentesis from the urinary bladder. The samples were measured for ^11C radioactivity with an auto-gamma counter (Hidex-AMG, Turku, Finland) and weighed. Tissue uptake of ^11C was expressed as the percentage of injected dose per organ (%ID/organ) or the percentage of injected dose per gram of tissue (%ID/g). The tissue distribution data were extrapolated to an adult male phantom using the %kg/g method (Blau [1975]). The radiation absorbed dose and effective dose for human adults were estimated using OLINDA/EXM software (Vanderbilt University, Nashville, TN) (Stabin et al. [2005]). Effective dose was estimated using the risk-weighting factor of ICRP Publication 103 (ICRP [2007]).
# [2] = pH 5.36
# [3] = Tissue distribution of radioactivity in mice; type: in vivo, mouse; settings: mean ± SD n = 4
# Description: as §1
# [4] = human adults, estimated from mouse data
smiles,measurement,setting,value
"CC(C)NC(C)Cc1ccc([11CH3])cc1 (centres unmarked) [[^11C]MMP, N-isopropyl-4-[^11C]methylamphetamine]",Effective dose,[1]; administration of 740 MBq,4.0 mSv
same,"highest absorbed dose, urinary bladder wall",[1]; administration of 740 MBq,42.6 mGy
same,"Absorbed dose, Adrenal",[1]; [4],2.21 µGy/MBq
same,"Absorbed dose, Brain",[1]; [4],3.67 µGy/MBq
same,"Absorbed dose, Breast",[1]; [4],1.34 µGy/MBq
same,"Absorbed dose, Gallbladder wall",[1]; [4],2.43 µGy/MBq
same,"Absorbed dose, Heart wall",[1]; [4],3.02 µGy/MBq
same,"Absorbed dose, Kidney",[1]; [4],8.6 µGy/MBq and 8.56 µGy/MBq
same,"Absorbed dose, Liver",[1]; [4],4.78 µGy/MBq
same,"Absorbed dose, Lower large intestine wall",[1]; [4],4.03 µGy/MBq
same,"Absorbed dose, Lungs",[1]; [4],7.3 µGy/MBq and 7.29 µGy/MBq
same,"Absorbed dose, Muscle",[1]; [4],2.70 µGy/MBq
same,"Absorbed dose, Osteogenic cells",[1]; [4],2.41 µGy/MBq
same,"Absorbed dose, Ovaries",[1]; [4],3.09 µGy/MBq
same,"Absorbed dose, Pancreas",[1]; [4],5.5 µGy/MBq and 5.53 µGy/MBq
same,"Absorbed dose, Red marrow",[1]; [4],2.12 µGy/MBq
same,"Absorbed dose, Skin",[1]; [4],1.29 µGy/MBq
same,"Absorbed dose, Small intestine",[1]; [4],4.51 µGy/MBq
same,"Absorbed dose, Spleen",[1]; [4],3.57 µGy/MBq
same,"Absorbed dose, Stomach wall",[1]; [4],3.59 µGy/MBq
same,"Absorbed dose, Testes",[1]; [4],2.66 µGy/MBq
same,"Absorbed dose, Thymus",[1]; [4],1.70 µGy/MBq
same,"Absorbed dose, Thyroid",[1]; [4],1.62 µGy/MBq
same,"Absorbed dose, Total body",[1]; [4],2.65 µGy/MBq
same,"Absorbed dose, Upper large intestine wall",[1]; [4],3.32 µGy/MBq
same,"Absorbed dose, Urinary bladder wall",[1]; [4],57.6 µGy/MBq
same,"Absorbed dose, Uterus",[1]; [4],4.51 µGy/MBq
same,"Radiochemical purity (stability test), mean of three runs",[2],99.7 ± 0.2%
same,"Injected dose/g tissue (%), Blood",[3]; 1 min after i.v. injection,1.40 ± 0.24 %ID/g
same,"Injected dose/g tissue (%), Bone",[3]; 1 min after i.v. injection,2.21 ± 0.54 %ID/g
same,"Injected dose/g tissue (%), Brain",[3]; 1 min after i.v. injection,5.75 ± 0.42 %ID/g
same,"Injected dose/g tissue (%), Heart",[3]; 1 min after i.v. injection,8.23 ± 1.30 %ID/g
same,"Injected dose/g tissue (%), Kidney",[3]; 1 min after i.v. injection,12.93 ± 7.10 %ID/g
same,"Injected dose/g tissue (%), Large intestine",[3]; 1 min after i.v. injection,1.92 ± 0.95 %ID/g
same,"Injected dose/g tissue (%), Liver",[3]; 1 min after i.v. injection,1.56 ± 0.87 %ID/g
same,"Injected dose/g tissue (%), Lung",[3]; 1 min after i.v. injection,28 %ID/g and 27.53 ± 4.66 %ID/g
same,"Injected dose/g tissue (%), Muscle",[3]; 1 min after i.v. injection,1.77 ± 0.86 %ID/g
same,"Injected dose/g tissue (%), Pancreas",[3]; 1 min after i.v. injection,3.96 ± 1.02 %ID/g
same,"Injected dose/g tissue (%), Small intestine",[3]; 1 min after i.v. injection,1.49 ± 0.84 %ID/g
same,"Injected dose/g tissue (%), Spleen",[3]; 1 min after i.v. injection,1.46 ± 0.42 %ID/g
same,"Injected dose/g tissue (%), Stomach",[3]; 1 min after i.v. injection,2.06 ± 1.30 %ID/g
same,"Injected dose/g tissue (%), Testis",[3]; 1 min after i.v. injection,0.96 ± 0.24 %ID/g
same,"Injected dose/organ (%), Bladder",[3]; 1 min after i.v. injection,0.07 ± 0.05 %ID/organ
same,"Injected dose/organ (%), Bladder + urine",[3]; 1 min after i.v. injection,0.07 ± 0.05 %ID/organ
same,"Injected dose/organ (%), Brain",[3]; 1 min after i.v. injection,2.28 ± 0.25 %ID/organ
same,"Injected dose/organ (%), Heart",[3]; 1 min after i.v. injection,1.56 ± 0.27 %ID/organ
same,"Injected dose/organ (%), Kidney",[3]; 1 min after i.v. injection,7.4 %ID/organ and 7.44 ± 4.00 %ID/organ
same,"Injected dose/organ (%), Large intestine",[3]; 1 min after i.v. injection,2.47 ± 1.19 %ID/organ
same,"Injected dose/organ (%), Liver",[3]; 1 min after i.v. injection,2.63 ± 1.23 %ID/organ
same,"Injected dose/organ (%), Lung",[3]; 1 min after i.v. injection,5.54 ± 0.95 %ID/organ
same,"Injected dose/organ (%), Pancreas",[3]; 1 min after i.v. injection,0.76 ± 0.23 %ID/organ
same,"Injected dose/organ (%), Small intestine",[3]; 1 min after i.v. injection,2.74 ± 1.46 %ID/organ
same,"Injected dose/organ (%), Spleen",[3]; 1 min after i.v. injection,0.17 ± 0.07 %ID/organ
same,"Injected dose/organ (%), Stomach",[3]; 1 min after i.v. injection,1.59 ± 1.06 %ID/organ
same,"Injected dose/organ (%), Testis",[3]; 1 min after i.v. injection,0.24 ± 0.03 %ID/organ
same,"Injected dose/organ (%), Urine",[3]; 1 min after i.v. injection,0.00 ± 0.00 %ID/organ
same,"Injected dose/g tissue (%), Blood",[3]; 5 min after i.v. injection,1.10 ± 0.14 %ID/g
same,"Injected dose/g tissue (%), Bone",[3]; 5 min after i.v. injection,2.20 ± 0.30 %ID/g
same,"Injected dose/g tissue (%), Brain",[3]; 5 min after i.v. injection,6.87 ± 0.62 %ID/g
same,"Injected dose/g tissue (%), Heart",[3]; 5 min after i.v. injection,3.53 ± 0.21 %ID/g
same,"Injected dose/g tissue (%), Kidney",[3]; 5 min after i.v. injection,16.26 ± 1.85 %ID/g
same,"Injected dose/g tissue (%), Large intestine",[3]; 5 min after i.v. injection,2.36 ± 0.41 %ID/g
same,"Injected dose/g tissue (%), Liver",[3]; 5 min after i.v. injection,4.30 ± 0.84 %ID/g
same,"Injected dose/g tissue (%), Lung",[3]; 5 min after i.v. injection,21.20 ± 1.81 %ID/g
same,"Injected dose/g tissue (%), Muscle",[3]; 5 min after i.v. injection,2.14 ± 0.14 %ID/g
same,"Injected dose/g tissue (%), Pancreas",[3]; 5 min after i.v. injection,8.21 ± 0.70 %ID/g
same,"Injected dose/g tissue (%), Small intestine",[3]; 5 min after i.v. injection,3.65 ± 0.21 %ID/g
same,"Injected dose/g tissue (%), Spleen",[3]; 5 min after i.v. injection,5.09 ± 0.59 %ID/g
same,"Injected dose/g tissue (%), Stomach",[3]; 5 min after i.v. injection,3.24 ± 1.94 %ID/g
same,"Injected dose/g tissue (%), Testis",[3]; 5 min after i.v. injection,1.26 ± 0.25 %ID/g
same,"Injected dose/organ (%), Bladder",[3]; 5 min after i.v. injection,0.09 ± 0.03 %ID/organ
same,"Injected dose/organ (%), Bladder + urine",[3]; 5 min after i.v. injection,3.51 ± 1.80 %ID/organ
same,"Injected dose/organ (%), Brain",[3]; 5 min after i.v. injection,2.68 ± 0.33 %ID/organ
same,"Injected dose/organ (%), Heart",[3]; 5 min after i.v. injection,0.63 ± 0.05 %ID/organ
same,"Injected dose/organ (%), Kidney",[3]; 5 min after i.v. injection,9.5 %ID/organ and 9.54 ± 0.98 %ID/organ
same,"Injected dose/organ (%), Large intestine",[3]; 5 min after i.v. injection,2.7 %ID/organ and 2.68 ± 0.45 %ID/organ
same,"Injected dose/organ (%), Liver",[3]; 5 min after i.v. injection,9.53 ± 2.41 %ID/organ
same,"Injected dose/organ (%), Lung",[3]; 5 min after i.v. injection,3.21 ± 0.65 %ID/organ
same,"Injected dose/organ (%), Pancreas",[3]; 5 min after i.v. injection,1.70 ± 0.23 %ID/organ
same,"Injected dose/organ (%), Small intestine",[3]; 5 min after i.v. injection,6.8 %ID/organ and 6.77 ± 0.37 %ID/organ
same,"Injected dose/organ (%), Spleen",[3]; 5 min after i.v. injection,0.57 ± 0.05 %ID/organ
same,"Injected dose/organ (%), Stomach",[3]; 5 min after i.v. injection,1.88 ± 0.90 %ID/organ
same,"Injected dose/organ (%), Testis",[3]; 5 min after i.v. injection,0.32 ± 0.06 %ID/organ
same,"Injected dose/organ (%), Urine",[3]; 5 min after i.v. injection,3.42 ± 1.82 %ID/organ
same,"Injected dose/g tissue (%), Blood",[3]; 15 min after i.v. injection,0.72 ± 0.23 %ID/g
same,"Injected dose/g tissue (%), Bone",[3]; 15 min after i.v. injection,1.29 ± 0.18 %ID/g
same,"Injected dose/g tissue (%), Brain",[3]; 15 min after i.v. injection,4.83 ± 0.21 %ID/g
same,"Injected dose/g tissue (%), Heart",[3]; 15 min after i.v. injection,1.93 ± 0.18 %ID/g
same,"Injected dose/g tissue (%), Kidney",[3]; 15 min after i.v. injection,11.36 ± 1.39 %ID/g
same,"Injected dose/g tissue (%), Large intestine",[3]; 15 min after i.v. injection,1.59 ± 0.62 %ID/g
same,"Injected dose/g tissue (%), Liver",[3]; 15 min after i.v. injection,6.07 ± 1.10 %ID/g
same,"Injected dose/g tissue (%), Lung",[3]; 15 min after i.v. injection,7.97 ± 0.89 %ID/g
same,"Injected dose/g tissue (%), Muscle",[3]; 15 min after i.v. injection,1.22 ± 0.10 %ID/g
same,"Injected dose/g tissue (%), Pancreas",[3]; 15 min after i.v. injection,8.55 ± 1.10 %ID/g
same,"Injected dose/g tissue (%), Small intestine",[3]; 15 min after i.v. injection,3.29 ± 0.83 %ID/g
same,"Injected dose/g tissue (%), Spleen",[3]; 15 min after i.v. injection,4.45 ± 0.69 %ID/g
same,"Injected dose/g tissue (%), Stomach",[3]; 15 min after i.v. injection,4.51 ± 1.35 %ID/g
same,"Injected dose/g tissue (%), Testis",[3]; 15 min after i.v. injection,1.63 ± 0.16 %ID/g
